System: SEM cells
Assay: cell viability relative to DMSO control; higher = less cytotoxic
Conditions: 48 h
Outline: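 Library compounds in DMSO were pin-dosed in an 11-point threefold series (47 μM to 0.79 nM) onto leukemia cells in 1536-well plates (5 μl). Plates held 500 cells/well of NOMO1 or SEM or 1000 cells/well of P12-Ichikawa, each adapted for at least four passages in each medium. Luminescence was read with CellTiter-Glo One after 48 h at 37°C. Viability means the per-plate percentage relative to DMSO wells, using cell-free wells as background.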

[1] = HPLM + 10% dialyzed FBS, 0.000781 µM
[2] = HPLM + 10% dialyzed FBS, 0.00234 µM
[3] = HPLM + 10% dialyzed FBS, 0.00702 µM
[4] = HPLM + 10% dialyzed FBS, 0.0211 µM
[5] = HPLM + 10% dialyzed FBS, 0.0632 µM
[6] = HPLM + 10% dialyzed FBS, 0.19 µM
[7] = HPLM + 10% dialyzed FBS, 0.569 µM
[8] = HPLM + 10% dialyzed FBS, 1.71 µM
[9] = HPLM + 10% dialyzed FBS, 5.12 µM
[10] = HPLM + 10% dialyzed FBS, 15.4 µM
[11] = HPLM + 10% dialyzed FBS, 46.1 µM
[12] = RPMI 5 mM glucose + 10% FBS, 0.000781 µM
[13] = RPMI 5 mM glucose + 10% FBS, 0.00234 µM
[14] = RPMI 5 mM glucose + 10% FBS, 0.00702 µM
[15] = RPMI 5 mM glucose + 10% FBS, 0.0211 µM
[16] = RPMI 5 mM glucose + 10% FBS, 0.0632 µM
[17] = RPMI 5 mM glucose + 10% FBS, 0.19 µM
[18] = RPMI 5 mM glucose + 10% FBS, 0.569 µM
[19] = RPMI 5 mM glucose + 10% FBS, 1.71 µM
[20] = RPMI 5 mM glucose + 10% FBS, 5.12 µM
[21] = RPMI 5 mM glucose + 10% FBS, 15.4 µM
[22] = RPMI 5 mM glucose + 10% FBS, 46.1 µM
[23] = RPMI 5 mM glucose + 10% dialyzed FBS, 0.000781 µM
[24] = RPMI 5 mM glucose + 10% dialyzed FBS, 0.00234 µM
[25] = RPMI 5 mM glucose + 10% dialyzed FBS, 0.00702 µM
[26] = RPMI 5 mM glucose + 10% dialyzed FBS, 0.0211 µM
[27] = RPMI 5 mM glucose + 10% dialyzed FBS, 0.0632 µM
[28] = RPMI 5 mM glucose + 10% dialyzed FBS, 0.19 µM
[29] = RPMI 5 mM glucose + 10% dialyzed FBS, 0.569 µM
[30] = RPMI 5 mM glucose + 10% dialyzed FBS, 1.71 µM
[31] = RPMI 5 mM glucose + 10% dialyzed FBS, 5.12 µM
[32] = RPMI 5 mM glucose + 10% dialyzed FBS, 15.4 µM
[33] = RPMI 5 mM glucose + 10% dialyzed FBS, 46.1 µM

Compound	cell viability [1] [%]	cell viability [2] [%]	cell viability [3] [%]	cell viability [4] [%]	cell viability [5] [%]	cell viability [6] [%]	cell viability [7] [%]	cell viability [8] [%]	cell viability [9] [%]	cell viability [10] [%]	cell viability [11] [%]	cell viability [12] [%]	cell viability [13] [%]	cell viability [14] [%]	cell viability [15] [%]	cell viability [16] [%]	cell viability [17] [%]	cell viability [18] [%]	cell viability [19] [%]	cell viability [20] [%]	cell viability [21] [%]	cell viability [22] [%]	cell viability [23] [%]	cell viability [24] [%]	cell viability [25] [%]	cell viability [26] [%]	cell viability [27] [%]	cell viability [28] [%]	cell viability [29] [%]	cell viability [30] [%]	cell viability [31] [%]	cell viability [32] [%]	cell viability [33] [%]
CCC1=C2CN3C(=O)\C4=C(/C=C3/C2=NC5=CC=C(O)C=C15)[C@@](O)(CC)C(=O)OC4	96.7	95.6	91.4	28.1	19.3	17	11.6	6.74	6.74	6.36	4.6	108	102	67.7	25.6	15.6	16.1	12.9	6.76	7.58	5.69	5.1	94.5	89.1	65	28	16.6	15.2	12.8	6.01	7.69	5.69	4.62
Clc1ccc(C(Cn2ccnc2)OCc2ccsc2Cl)c(Cl)c1 (centres undefined)	67.6	98.8	107	93.1	114	110	90.4	111	111	114	35.7	76.4	95.1	114	105	132	121	100	122	110	112	65.6	69.3	110	110	117	128	124	101	109	118	105	55.9
CC(=O)O[C@@]12CO[C@@H]1C[C@H](O)[C@]3(C)[C@@H]2[C@H](OC(=O)C4=CC=CC=C4)[C@]5(O)C[C@H](O)/C(=C(/[C@@H](O)C3=O)C5(C)C)C	84.3	108	43.5	110	106	111	116	107	90.2	35.8	16.3	70.4	71.5	19.1	71	64.7	72.3	70.1	65.2	54.2	18.1	8.94	90.8	99.6	43.2	116	105	110	121	112	75.1	29.9	13
COC(=O)[C@@H]1CC2=CC(=O)CC[C@]2(C)[C@@]23O[C@@H]2C[C@@]2(C)[C@@H](CC[C@@]24CCC(=O)O4)[C@H]13	87.9	88.3	94.7	100	96.1	121	113	115	115	102	111	105	108	113	98.1	116	115	97.4	114	122	106	121	87.5	93	112	101	113	107	119	116	122	130	125
CN(C)[C@H]\1[C@@H]2[C@@H](O)[C@H]3\C(=C(O)/[C@]2(O)C(=O)\C(=C1O)C(N)=O)C(=O)C4=C(C=CC=C4O)[C@@]3(C)O	100	95.3	99.4	98.8	98.9	106	105	103	117	106	95.7	102	123	121	125	115	114	129	121	104	133	118	113	121	121	118	125	124	115	114	122	118	118
Cc1n[nH]c2ccc(-c3cncc(OC[C@@H](N)Cc4c[nH]c5ccccc45)c3)cc12	98.9	104	89.8	97.8	83.7	40.6	32.9	19.2	2.11	0.908	1.79	94.9	111	88.6	102	95.7	67	59.7	25	2.35	0.602	1.49	103	99.4	84.2	92.3	89	56.1	47.7	26.6	2.83	0.892	1.9
CC1(C)NC(=O)N(c2ccc([N+](=O)[O-])c(C(F)(F)F)c2)C1=O	88.7	89.7	82.5	90.8	96.9	44.9	94	90.8	81	87.4	84.6	98.7	79.5	92.9	96.7	104	86	99.6	94.9	110	87.7	93.9	99.4	91	101	109	96.3	74.5	104	106	106	78.9	90
O=C(N[C@H]1CN2CCC1CC2)c1ccc(Cl)cc1	89.3	96.5	95.5	99.8	98.7	87.4	96.3	105	102	98.5	84.4	84	92.2	99.5	87.8	96.1	95.9	101	99.5	93.3	88.6	60.2	93.2	98.9	94.8	94.3	104	116	96.1	93.2	94.1	107	76.1

— the supplement of paper PMC11451515
